Data reported in patent publication US20080145313A1, “Compositions and Methods for the Treatment and Prevention of Neoplastic Disorders” (Genesis Research & Development Corporation Limited, priority 2006, published 2008).
pIC50: −log10 of the molar value. Like-named read-outs stand apart in the source and are kept apart here.

Key:
[1] = tested on: A549 tumors; assay: Uptake of Alexa 555-labeled siRNA into A549 tumor cells in vivo after intratumoral injection; parameters: species or system mouse; settings: 25 μg i.t.
Procedure: An Alexa 555-labeled control siRNA was used to determine the cellular uptake of siRNA in tumor tissues when given via intratumoral (i.t.) injection. A549 cells (6−8×10^6 cells) were s.c. inoculated into CD-1 nude mice. Once the A549 tumors reached a size of approximately 100 mm^3, mice were divided into two groups of four mice each. The Alexa 555-labeled Stealth™ siRNA (SEQ ID NO: 5111 (DNA), and SEQ ID NO: 5300 (RNA); Invitrogen Corp.) at a dose of 25 μg (in 50 μl) was injected into tumors of one group. 50 μl PBS was injected into tumors of a negative control group. Tumors were harvested at 6 and 24 h after injection and placed in a labeled cryomold (Tissue-TeK® Crymold®; ProSciTech, Thuringowa, Queensland, Australia) and covered with OCT tissue freezing medium (O.C.T. Compound, ProSciTech). The mold was gently submerged in liquid nitrogen for approximately one minute until OCT turned white and opaque. Tissues were stored at minus 80° C. until sections were cut. Tissues were allowed to reach −20° C. before processing in a Leica Cryostat (Leica Microsystems, Inc., Bannockburn Ill.) at 10 microns. Sections were picked up on Super Frost Plus slides (Esco, Biolab Scientific, New Zealand). After air-drying, sections were fixed in freshly prepared 2% paraformaldehyde solution for 2 minutes at room temperature and then rinsed in PBS to remove the fixative. The slides were mounted in Prolong Gold antifade reagent with DAPI (Molecular Probes®, Invitrogen Corp.), covered with cover slips and sealed to the slides with clear nail polish. The slides were stored at 4° C. in the dark. Fluorescence in the tumor samples was visualized using a Zeiss Axioskop Microscope (Carl Zeiss microimaging, Inc., Thornwood N.Y.) and Leica SP-2 Confocal Microscope (Leica Microsystems, Inc.). Autofluorescence in tumor tissues was very low in all filters examined (green, red and UV). […]

[2] = tested on: A549 cells; assay: MTT cell proliferation assay of A549 cells transfected with thymidylate synthase siRNA; assay type: cell-based, human; settings: 6, 12 and 50 nM siRNA; 72 h
Procedure: siRNA mediated silencing in Human A549 cells A549 cells (ATCC No. CCL-185), a human lung cancer cell line, were cultured in RPMI 1640 medium with 5% v/v dialyzed fetal calf serum. Cells were seeded at a density of 2×10^4 cells/100 μl in 96-well plates. Stealth™ siRNA duplexes targeting the thymidylate synthase (SEQ ID NO: 23) gene were transfected at concentrations of 6, 12, and 50 nM into the A549 cells using Lipofectamine 2000 transfection reagent (Invitrogen). After 72 h, cell viability was assessed by measuring cell proliferation using a standard MTT assay (Mosman, J. Immunol. Methods 65:55-63, 1983).

[3] = tested on: A549 cells; assay: Growth inhibition of siRNA-transfected A549 cells, SYBR Green I DNA content; assay type: cell-based, human; settings: 10 nM siRNA; DNA content 96 hours after transfection
Outline: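 A549 cells reverse-transfected with 10 nM Stealth siRNAs via Lipofectamine RNAiMAX, seeded at 5×10^3 cells/cm^2 in RPMI 1640/10% FCS; non-specific siRNA control. DNA content read 96 h post-transfection by SYBR Green I fluorescence (ex 485/em 535 nm) after freeze-thaw and Triton X-100 lysis; mean of three wells.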

[4] = tested on: HCT-116 cells; assay: 5FU toxicity in HCT-116 cells after TYMS or DHFR knockdown, SYBR Green; assay type: cell-based; settings: cells transfected with 0.1 nM siRNA; 5FU continuous for 3 days; read-out: IC50 value of 5FU following TYMS knockdown, HCT-116
Procedure: (§1) HCT-116 and A549 cells were transfected as described above with 0.1, 1.0 and 10 nM of three TYMS-specific siRNAs, labeled TYMS-1, TYMS-2 and TYM-3 (SEQ ID NO: 4833-4835 (DNA), and SEQ ID NO: 5139-5141 (RNA), or 1.0 and 10 nM control siRNAs (809-ctrl; SEQ ID NO: 4805 (DNA), and SEQ ID NO: 5302 (RNA) and 81ctrl; SEQ ID NO: 4804 (DNA), and SEQ ID NO: 5301 (RNA)). HCT-116 and A549 cells were also similarly transfected with 0.1, 1.0 and 10 nM of three DHFR-specific siRNAs, labeled DHFR-1, DHFR-2 and DHFR-3 (SEQ ID NO: 4836-4838 (DNA), and SEQ ID NO: 5142-5144 (RNA)), or control siRNA (SEQ ID NO: 4805 (DNA), and SEQ ID NO: 5302 (RNA)). Twenty four hours after transfection, cells were exposed to 5FU using a serial dilution starting at 44 μM, in medium containing either 10% normal FCS or 10% dialyzed FCS as described above. 5FU treatment was continuous for 3 days, at which time cell growth was analyzed by measuring DNA content per well using the SYBR Green assay outlined above. […] This combinatorial inhibitory effect was further increased when experiments were done in medium containing dialyzed FCS (FIGS. 27D-F; FIGS. 28D-F).
(§2) FIGS. 29 and 30 show transfection with DHFR siRNA similarly led to a dose-dependent increase in growth inhibition above that caused by the drug alone (control siRNA-transfected cells) in HCT-116 cells (FIGS. 29A-C), and A549 cells (FIGS. 30A-C). This combinatorial inhibitory effect was further increased when experiments were done in medium containing dialyzed FCS (FIGS. 29D-F; FIGS. 30D-F). The changes in the IC50 value for 5FU in HCT-116 and A549 cells following TYMS knockdown by individual siRNAs are listed in Table 16 below.

[5] = tested on: A549 cells; assay: 5FU toxicity in A549 cells after TYMS or DHFR knockdown, SYBR Green; assay type: cell-based, human; settings: 5FU continuous for 3 days, read-out: IC50 value of 5FU following TYMS knockdown, A549
Procedure: as §1, §2

[6] = tested on: A549 xenograft tumor; assay: Xenograft tumor growth of A549 cells transfected with siRNA pre-implantation in CD-1 nude mice; assay type: in vivo, mouse
Procedure: To determine the effect of RRM1 knockdown on tumor growth, A549 cells (human lung cancer cell line; ATCC No. CCL-185) were reverse-transfected prior to implantation in CD-1 nude mice. In 175 cm^2 culture flasks, 10×10^6 A549 cells (in RPMI supplemented with 10% fetal calf serum) were added to pre-made lipoplexes. To make lipoplexes, Lipofectamine RNAiMAX in serum-free RPMI was added to an equal volume of serum-free RPMI containing siRNA (RRM1-2; SEQ ID NO: 4831 (DNA), and SEQ ID NO: 5137 (RNA)) and a control siRNA (SEQ ID NO: 4804 (DNA), and SEQ ID NO: 5301 (RNA)). After addition of cells, the final concentration of siRNA in the flask was 10 nM. Untransfected cells served as a further control. Flasks were incubated at 37° C. for 24 h to allow transfection to proceed.
The cells were harvested by trypsinization 24 h after the transfection, washed twice in PBS and viable cells were counted. Equal numbers of cells (1×10^7) were inoculated into CD-1 nude mice (n=7-9). Briefly, 5 to 7 weeks old nude mice were subcutaneously (s.c.) injected in the right flank with A549 cells in 100 μl PBS. Tumor growth was monitored 3 times per week by measuring tumor sizes using a digital caliper. Tumor volume was expressed in […] using the formula: V=a^2×b×0.52, where a and b represent the minimum and maximum tumor diameter, respectively. Mean tumor volumes calculated from each measurement were then plotted in a standard graph to compare the tumor growth of transfected cells to that of control.
To determine the effect of siRNA-mediated knockdown of HK-II, CAD, IMPDH2, RRM2, SLC16A1 and SLC29A1 on tumor growth, A549 cells (human lung cancer cell line; ATCC No. CCL-185) were reverse-transfected prior to implantation in CD-1 nude mice as described above with siRNAs given in SEQ ID NO: 5307 (DNA), and SEQ ID NO: 5304 (RNA) for RRM2, SEQ ID NO: 4932 (DNA), and SEQ ID NO: 5227 (RNA) for ENT1, SEQ ID NO: 4813 (DNA), and SEQ ID NO: 5119 (RNA) for HK-II, SEQ ID NO: 4827 (DNA), and SEQ ID NO: 5133 (RNA) for CAD, SEQ ID NO: 4879 (DNA), and SEQ ID NO: 5182 (RNA) for IMPDH2 and SEQ ID NO: 4924 (DNA), and SEQ ID NO: 5219 (RNA) for SLC16A1, respectively. The siRNA given in SEQ ID NO: 4804 (DNA), and SEQ ID NO: 5301 (RNA) was used as control.
In two separate experiments, CD-1 mice were divided into five groups that received untransfected A549 cells, cells transfected with control siRNA or three different siRNAs (as listed above), respectively. Cells were transfected in vitro using the method as described in Example 8, and 24 h after transfection, s.c. inoculated into mice. Tumor growth was measured 3 times per week. In the first experiment, mice received cells transfected with siRNA targeting RRM2, HK-II or SLC29A1 and were monitored for 33 days. In the second experiment, mice received cells transfected with siRNA targeting CAD, IMPDH2 or SLC16A1, and were monitored for 26 days. […] Similarly, preliminary data indicated tumor growth rate was reduced for the groups receiving cells transfected with siRNA targeting CAD and SLC16A1. Twenty-six days after cell inoculation, the tumor volume for mice with cells transfected with siRNA targeting CAD or SLC16A1 was 97.2±7.3 mm^3 or 110.1±28.1 mm^3, respectively.

[7] = tested on: A549 xenografted tumors; assay: Intratumoral siRNA treatment of established A549 tumors in CD-1 nude mice; assay type: in vivo, mouse
Procedure: A549 cells (6−8×10^6 cells) were s.c. inoculated into CD-1 nude mice as described above. When tumors reached an average volume of approximately 100 mm^3, the tumor-bearing mice were randomly assigned into three different treatment groups (RRM1 siRNA, control siRNA and PBS) with 5 to 6 mice in each group. There were no significant differences in tumor volumes among groups prior to the initiation of treatments. Mice were anesthetized by gaseous isoflurane and 50 μl siRNA or PBS was injected directly into tumors using a 30-gauge needle. Two experiments were conducted. In the first experiment (IT#1), the animals received a dose of 50 μg of siRNA in each intratumoral (i.t.) injection and the injections were performed 3 times per week for 2 weeks. In the second experiment (IT#2), 25 μg siRNA was used and mice were injected 3 times per week for 3 weeks. The tumor volume was determined immediately before each injection by perpendicular measurements of the shortest and longest diameters as described above.

Which results are given for “Alexa 555-labeled siRNA: Alexa 555-labeled control Stealth siRNA (Invitrogen) (chain 1 CCGCAACAACGCCATCTATGAGAAA; chain 2 CCGCAACAACGCCAUCUAUGAGAAA; Alexa 555 label, position not given here, Stealth siRNA, chemistry not given here; one strand in two spellings)”?
cellular uptake of siRNA in tumor tissue (fluorescence) ([1]; 6 h after injection): red punctuations were seen in some tumor cells, indicative of uptake of siRNA; intracellular localization of siRNA fluorescence ([1]; 6 h after injection, overlay with DAPI): located in the cytoplasm around the periphery of the nuclei; cellular uptake of siRNA in tumor tissue (fluorescence) ([1]; 24 h after injection): also observed in the samples taken 24 h after injection, although in slightly lower number of cells

“SEQ ID NO: 4833: siRNA targeting TYMS (chain 1 AGCAGAGGGAATTCATCTCTCAGGC; chain 2 AGCAGAGGGAAUUCAUCUCUCAGGC; chemistry not given here; one strand in two spellings)” was tested. Which “cell growth (MTT assay)” value [2] did it give?
Its value is “dose-dependent inhibition of cell growth”.

And the “Growth Inhibition in A549 cells” value [3]?
Its value is “+ (inhibits by at least 50%)”.

What about the pIC50 [4] of the same substance?
The pIC50 was 7.00.

And the pIC50 ([5]; cells transfected with 0.1 nM siRNA)?
Its pIC50 is 6.47.

What about the pIC50 ([5]; cells transfected with 1 nM siRNA) of the same substance?
The pIC50 was 6.96.

What about the pIC50 ([5]; cells transfected with 10 nM siRNA) of the same substance?
The pIC50 was 6.85.

What does the source list for “SEQ ID NO: 4804: non-specific control siRNA against an irrelevant target (chain 1 AGCAGAGGGAATTCATCTCTCAGGC; chain 2 AGCAGAGGGAAUUCAUCUCUCAGGC; chemistry not given here; one strand in two spellings) [reference compound]”?
average tumor size ([6]; six weeks after the cell inoculation, 10 nM siRNA pre-implantation): 370.7±63.8 mm^3; average tumor size ([6]; thirty-three days after the cell inoculation, preliminary data): 172.3±36.1 mm^3; tumor volume ([6]; twenty-six days after cell inoculation, preliminary data): 154.3±23.7 mm^3; average tumor volume ([7]; IT#1: 50 μg i.t. 3 times per week for 2 weeks, day 15 after treatment initiation): 238.7±41.4 mm^3; tumor volume ([7]; IT#2: 25 μg i.t. 3 times per week for 3 weeks, day 21 post-treatment initiation): 248.9±37.3 mm^3
